# Source: US5948635A, “Totally Synthetic Affinity Reagents” (University of North Carolina at Chapel Hill, priority 1995, dated 1999)
# Tested on: 7E11-C5 antibody
# Experiment: Relative affinity: phage binding to microtiter plates coated with differing amounts of 7E11-C5
# Set-up: species or system mouse
# Settings: plates coated with 0, 4, 20, 100 and 500 ng antibody
# Method: The relative affinity of the different 7E11-C5 binding TSARs for the 7E11-C5 antibody was compared. Microtiter plates were coated with differing amounts of the antibody (i.e., 0, 4, 20, 100 and 500 ng) prior to phage binding. Our prediction was that the TSAR with the highest affinity for the antibody would still bind effectively to wells coated with lower amounts of antibody. […] These TSARs all have Y as the second amino acid in the motif. The next class of TSARs bound ~2-fold less well; as represented by 12-2, which also had Y as the second amino acid. Three TSARs bound 5-10 fold less well than the best binders as represented by 9-2, 9-4, and 12-4; their inserts had W or H at the second position of the motif. Finally, TSAR 12-3 bound 50-fold less well than the best binders; this TSAR has I and R in the second and sixth positions, respectively. Thus, it seems that the 7E11-C5 epitope can be mimicked by a linear peptide sequence that has both variant and invariant residues.
row,Molecule,relative binding to 7E11-C5 (fold less well than the best binders)
1,SVQFKSISSRSMDDVVKDPGPKPA MWKMLH SKNPFTLS [7E11.9-2],5-10 fold
2,FDHTYSGPVCVKNGGLVSPGVLS MYNRLH SDGGPSLAS [7E11.9-3],bound the best
3,PVQKEYGFFMSGAS MIRLLR ETP [7E11.12-3],50 fold
4,RLGNVWRVEGGG MYQQLH HNFPX^2 [7E11.12-1],bound the best
5,IDMPETAST MYNMLH RNEPGGRKLSPPANDMPPALLKR [7E11.9-5],bound the best
6,RDSAVENPSVGGEIP MYRYLH QR [7E11.12-2],~ 2 fold
7,SSCAYARYVPLLLLLYANPG MYSRLH SPAVRPLTQSSA [7E11.9-1],bound the best
8,QKGGPGLLLYGGDS MWITLH EPG [7E11.12-4],5-10 fold
9,TVAT MHDTLH SAPGSGNLPGSYDIKPIFKASGALHSTX^2 [7E11.9-4],5-10 fold

# Tested on: C46 monoclonal antibody
# Experiment: Competition of CEA with phage for binding to immobilized C46 antibody
# Set-up: species or system mouse
# Settings: CEA 1, 25, 250, 2500 ng; FIG. 17
# Method: Microtiter dish wells were coated with 50 μl of the C46 monoclonal antibody (5 μg/ml in 100 mM NaHCO3, pH 8.5) for 2 hr at 4° C. To the wells, 50 μl of BSA (1 mg/ml in 100 mM NaHCO3, pH 8.5) were added and the wells incubated for 30 min. at room temperature. The wells were washed (5×) with PBS-0.05% Tween 20.
# To each well was added either 25 μl of C46-binding phage (C46.9-1 or C46.9-2) and increasing amounts of highly purified CEA (1, 25, 250, 2500 ng) (Scripps Clinic). After 2 hr incubation at room temperature, the wells were washed (10×) with PBS-0.05% Tween 20. 25 μl of 200 mM glycine-HCl (pH 2.2) were then added to the wells and they were incubated at room temperature for 5 min. The liquid was then transferred to new microtiter dish wells that contained 50 μl of 1M NaHPO4. The contents of the well were then serially diluted and aliquots were plated to count plaques.
row,Molecule,competition with CEA for binding to the C46 antibody
1,CNFRGQCVSAPQTSNSKSPGWDTTWHDFRKEQFYNLTS [C46-9.2],competitive binding
2,NAVRVDSGYPPNPNTFHLPGCIDVLSSGCRLFSAHSEY [C46-9.1],competitive binding

# Target: T1, streptavidin (Streptomyces avidinii, UniProt P22629)
# T1 construct: purchased Advanced Magnetics, Cambridge, Mass
# Experiment: Inhibition of TSAR binding to streptavidin by biotin and biotin analogs
# Settings: not given
# Method: Specificity of the binding of the identified proteins for streptavidin was investigated by evaluating inhibition of binding by biotin and by a number of biotin analogs, including diaminobiotin, immunobiotin, lipoic acid and imidazalidone. Four representative TSARs, pictured in Table 9, were evaluated, i.e., SA-1,-2, -4 and -14 (SEQ ID NOs. 116, 114, 104 and 117).
# T1 sequence (P22629 25-183): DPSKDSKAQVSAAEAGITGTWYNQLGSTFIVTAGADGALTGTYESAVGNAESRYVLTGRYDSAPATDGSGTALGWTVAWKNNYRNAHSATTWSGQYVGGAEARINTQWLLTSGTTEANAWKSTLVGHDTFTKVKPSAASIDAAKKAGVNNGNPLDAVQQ
row,Molecule,inhibition of TSAR binding to streptavidin by biotin and all the biotin analogs tested
1,IAHRVVAYNSLDSNPIWLPGEESSSVFGDY HPMF RAPV [SA-4],completely inhibited
2,PDYDLMSSTCRFYGCSKMPGGVAVNGLFAVQGHSKYSS [SA-1],completely inhibited

# Same assay, conditions: representative TSARs SA-1, -2, -4 and -14
row,Molecule,IC50 [µM]
1,N[C@@H]1[C@H](CCCCC(=O)O)SC[C@@H]1N [diaminobiotin],~0.2
2,O=C(O)CCCC[C@@H]1CCSS1 (racemic) [lipoic acid],~1050
3,imidazalidone,~5000
4,N=C1N[C@H]2[C@H](CS[C@H]2CCCCC(=O)O)N1 [immunobiotin],~3

# Tested on: 7E11-C5 monoclonal antibody
# Experiment: Competitive binding ELISA: inhibition of 7E11-C5 binding to LNCaP cell lysate antigen
# Set-up: species or system mouse
# Settings: phage 6.3×10^7 to 6.3×10^11 pfu; 7E11-C5 30 ng/ml
# Method: Each well of a polyvinylchloride 96-well ELISA plate (Cooke, Alexandria, Va.) was coated with an LNCAP human prostate carcinoma cell (ATCC # CRL 1740) lysate. Lysates were prepared by harvesting confluent LNCaP cell cultures, resuspending cells in 4 volumes of 1 mM MgCl2 for 5 minutes, mixing with 2 μg of DNase (Boehringer Mannheim, Indianapolis, Ind.) and homogenizing using 40 strokes in a Dounce homogenizer (Wheaton, Millville, N.J.). LNCaP lysate (50 μl per well of a 1:50 dilution in 0.1×PBS [Dulbecco's pH 7.2, JRH, Denver, Pa.]) was air dried overnight at 37° C. onto wells of the ELISA plate. ELISA plates were blocked with 150 μl/well of 1% BSA (Pentex Fraction V, Miles, Kankakee, Ill.) in PBS for 60 minutes at room temperature.
# The blank control consisted of blocking solution in the absence of primary antibody. 7E11-C5 monoclonal antibody pre-incubated with buffer without any phage (MAb) was the positive control. The expression vector m663 phage was also employed as a non-specific phage control.
# Plates were washed 4 times with 0.05% Tween-20 in PBS. Bound monoclonal antibody 7E11-C5 was detected by: (1) incubating with 50 μl/well of anti-mouse IgG1 -HRP (Fisher Biotech, Orangeburg, N.Y.) diluted to 0.4 ng/ml in 1% BSA-PBS, for 60 minutes at room temperature; (2) washing plates 6 times with 0.05% Tween-20 in PBS; and (3) adding 100 μl/well ABTS substrate [200 μl ABTS, (Boehringer Mannheim), 10 ml citrate buffer (pH 4), 10 μl H2 O2 ]. Optical density of the reactions products was determined by endpoint analysis on a Multiscan plate reader (Molecular Devices, Menlo Park, Calif.). The competitive inhibition (%) was determined by comparing the reactivity of the positive control to the test samples.
# The TSAR-based peptide (SEQ ID NO 31) concentration ranged from 1.75 to 1130 nM. […] Two additional control peptides (amide form) having the following amino acid sequences: RGD-21: NH2 -[…]-CONH2 (SEQ ID NO 32) and CYT-379: NH2 -[…]-CONH2 (SEQ ID NO 33) were also evaluated. Herein these control peptides are referred to as Control Peptide 1 and Control Peptide 2. […] The B139 monoclonal antibody, which is a murine IgG1 monoclonal antibody that reacts with all human epithelial cells, recognizes a different antigen in the LNCaP extract from that recognized by the 7E11-C5 antibody. The control B139 monoclonal antibody was used at a concentration of 9 ng/ml. The results obtained are illustrated in FIG. 13.
row,Molecule,inhibition of 7E11-C5 binding to its antigen by phage
1,RLGNVWRVEGGG MYQQLH HNFPX^2 [7E11.12-1],"inhibited the binding of 7E11-C5 monoclonal antibody to its antigen, in a dose dependent fashion"
2,IDMPETAST MYNMLH RNEPGGRKLSPPANDMPPALLKR [7E11.9-5],"inhibited the binding of 7E11-C5 monoclonal antibody to its antigen, in a dose dependent fashion"
3,SSCAYARYVPLLLLLYANPG MYSRLH SPAVRPLTQSSA [7E11.9-1],also inhibited 7E11-C5 monoclonal antibody binding

# Tested on: not listed separately
# Experiment: Immobilized metal affinity chromatography of phage on Zn(II)-IDA
# Type: binding
# Settings: comparison of four clones
# Method: The TSAR-9 random peptide library was subjected to IMAC chromatography as follows: 0.5 ml bed volume iminodiacetic acid (IDA) Sepharose (Sigma Chemical Co.) columns were washed with 1 ml of sterile doubly distilled (dd) H2 O, charged with 5 ml of 10 mM ZnCl2 in dd H2 O followed by 3 ml sterile dd H2 O and equilibrated with 10 ml 10 mM Tris-HCl, 150 mM NaCl, 0.1% Tween-20, pH 7.5 (T10NT) to prepare the Zn(II) IDA column. 10^12 pfu of the TSAR-9 random peptide library were passed over the Zn(II) IDA column and washed with 10 ml T10NT. Bound phage were eluted with 500 μl 200 mM glycine-HCl, pH 2.2 and the pH was then neutralized with 500 μl 1 M phosphate buffer, pH 7.5+1 ml T10NT. Eluted phage were subjected to two further rounds of selection and the resulting population was amplified by overnight growth on a lawn of E. coli DH5αF'.
# To quantitate the relative binding of the Zn(II)-IDA selected TSARs, each TSAR encoding phage was chromatographed over Zn(II)-IDA. Three fractions were collected and titered for phage: wash (unbound), elution (bound, eluted), and column (bound, not eluted).
# The binding specificity of a number of the identified Zn-binding proteins was evaluated by chromatography using IDA columns charged with Zn^+2, Cu^+2 or Ni^+2. A particular Zn-binding phage (10×10^11 pfu) in 1 ml of 100 mM Tris-HCl, 150 mM NaCl, 0.1% Tween-20, pH 7.5 (T100NT) was loaded onto a Zn(II)-, Cu(II)- or Ni(II)-IDA column and the columns were washed as described above, except that T100NT was substituted for T10NT. The columns were eluted with acid; Zn^+2 (2 ml 100 mM ZnCl2 in T1OONT, pH 7.5), or imidazole (2 ml 100 mM imidazole in T100NT, pH 7.5). Three fractions were collected and titered for the presence of phage: the wash fraction (.box-solid.), the elution fraction and the metal II-IDA column matrix resuspended in T10NT (.quadrature.).Results obtained are shown in FIG. 16 A and B.
row,Molecule,relative retention by Zn(II)-IDA
1,ATEQHYWTQYHKPYHPSVPGFHVKSVTETTDHWESRNG [Zn1B8],exhibit the least retention
2,HSYHDVATTKPGSHCMHNPGHPPPPNCHMAKAHSHNRI [Zn1A12],exhibit the least retention

# Same assay, conditions: phage
row,Molecule,"retention on Zn(II)-IDA, of recovered phage [%]"
1,YDHHSYNGDMHYPGWPPLPGPHHFAPIDVTTHSHTQPD [Zn1A1],15
2,ATEQHYWTQYHKPYHPSVPGFHVKSVTETTDHWESRNG [Zn1B8],85
